{
  "source": "patent US12661355B2",
  "about": "“Compounds and methods for inducing UCP1 expression” (The Regents of the University of California, priority 2020, dated 2026)",
  "tested_on": "UCP1",
  "test": "Gene expression in immortalized human white adipocytes",
  "type": "cell-based",
  "details": "10 μM for 4 days",
  "method": "Human immortalized brown and white preadipocytes were obtained from Dr. Yu-Hua Tseng (Joslin Diabetes Center, Harvard Medical School, USA). The generation of the two cell lines from human neck adipose tissue biopsies and immortalization was performed as previously described but from a different donor. Cells were cultured in high glucose DMEM supplemented with 10% FBS and antibiotics. Two days after reaching confluence, cells were treated with 30 μM biotin, 500 nM insulin, 17 μM pantothenate, 100 nM dexamethasone, 2 nM 3,3′,5-Triiodo-L-thyronine, 500 μM IBMX, 30 μM indomethacin and 1 μM rosiglitazone, for 12 days. Afterwards, cells were treated with 30 μM biotin, 500 nM insulin, 17 μM pantothenate and 2 nM 3,3′,5-Triiodo-L-thyronine (Maintenance media) for 2 days with end-point assays performed on day 18, and for 5 days with end-point assays performed on day 21, for the brown and white adipocytes cells, respectively.\nMouse RNA levels were measured by qPCR according to known methods. Data were normalized to B2m and Tbp reference genes. Human RNA was extracted using an RNA Mini Plus kit (Zymo) and gene expression determined by Taqman assay. The 1-step qPCR was run on a QuantStudio 12K Flex Real Time PCR System (ThermoFisher) using the following protocol: 50° C. for 5 minutes, 95° C. for 20 seconds, 40 cycles of 95° C. for 15 seconds and 60° C. for 60 seconds. […]",
  "data": [
    {"smiles": "COc1ccc(NC(=O)CSc2nc3ccccc3c(=O)[nH]2)c(OC)c1", "note": "[Z160]", "values": [
      {"measurement": "UCP1 expression", "result": 7, "unit": "fold"},
      {"measurement": "expression of CIDEA, ACADM, CPT1B and ELOVL3", "result": "greatly increased expression"}
    ]}
  ]
}
